Our source for the EC50 values is paper PMC11673756, “Urolithin A Protects Hepatocytes from Palmitic Acid-Induced ER Stress by Regulating Calcium Homeostasis in the MAM” (Biomolecules, 2024).

The target in the experiment is T1, CCDC47 (Coiled-Coil Domain Containing 47) (Homo sapiens, UniProt Q96A33).
T1 construct: endogenous CCDC47 in HepG2 cells
T1 sequence (Q96A33 21-483): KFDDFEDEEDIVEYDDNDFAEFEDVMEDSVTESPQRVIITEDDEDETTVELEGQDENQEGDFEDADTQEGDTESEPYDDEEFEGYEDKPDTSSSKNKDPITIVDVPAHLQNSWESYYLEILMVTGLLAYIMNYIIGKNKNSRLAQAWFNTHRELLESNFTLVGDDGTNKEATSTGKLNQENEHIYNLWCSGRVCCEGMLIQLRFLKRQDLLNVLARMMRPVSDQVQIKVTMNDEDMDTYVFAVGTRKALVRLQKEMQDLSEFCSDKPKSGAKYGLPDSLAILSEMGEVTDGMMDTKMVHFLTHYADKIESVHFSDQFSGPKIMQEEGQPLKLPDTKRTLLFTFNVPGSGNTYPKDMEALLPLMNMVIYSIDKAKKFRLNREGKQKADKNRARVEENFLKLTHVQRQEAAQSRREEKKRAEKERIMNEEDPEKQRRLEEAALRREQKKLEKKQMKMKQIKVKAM
Put plainly: isothermal CETSA at […] °C. The format is cell-based.

Take `O=c1oc2cc(O)ccc2c2ccc(O)cc12` [UA, Urolithin A]: the half-maximal effective concentration (EC50) is about 38 µM.

For orientation: EC50 means the concentration at which the effect is half-maximal.
